Results from patent publication US11352350B2, “IRAK degraders and uses thereof” (Kymera Therapeutics, Inc., priority 2018, dated 2022).

What was measured:
TNFα [1] = test: Human PBMC LPS TNFα assay; type: cell-based; details: hPBMC, LPS stimulation, read-out: IRAK4 hPBMC LPS TNF-α inhibition: Average external-IC50
Description: Human PBMC LPS TNFα assay. Frozen PBMCs were thawed into RPMI with 10% FBS/1% penicillin/streptomycin and same day plated into 96 well plates at 200,000 PBMC/[…] media per well. Compound plates were prepared in DMSO with D300 cassette as 8-point dose curves in duplicate, starting dose 2 μM, 5-fold. Compounds are added 200 nL into cells for final 200 μL per well. Compound and cells were incubated at 37° C., 5% CO2 for 20 hours. After twenty hours of pretreatment with the compounds, LPS (01 1 1:B4) (Sigma #L2637) was added at 100 ng/ml final concentration and PBMCs incubated an additional five hours at 37° C., 5% CO2. Following assay completion, PBMC plates were spun down at 2000 rpm for 10 minutes. 100 uL of supernatant was carefully removed and placed into a new 96 well Costar (#3879) plate and stored at −80° C. until further analysis. Meso scale Discovery (MSD) human V-plex assays were used to measure cytokine levels. On day of cytokine analysis, supernatant samples were thawed, diluted with V-plex diluent #2, and directly to MSD plates. Assay was further completed per standard manufacturer's protocol. Cytokine data was normalized to LPS stimulated and unstimulated controls. Prism Graphpad was used to generate IC50 using 4 parameter logistic regression curve, free-fit.

IRAK4 [2] = target: T1, IRAK4 (Homo sapiens (Human), UniProt Q9NWZ3); test: IRAK4 MSD degradation in OCI-LY10; type: cell-based; details: MSD
T1 sequence (Q9NWZ3 whole entry): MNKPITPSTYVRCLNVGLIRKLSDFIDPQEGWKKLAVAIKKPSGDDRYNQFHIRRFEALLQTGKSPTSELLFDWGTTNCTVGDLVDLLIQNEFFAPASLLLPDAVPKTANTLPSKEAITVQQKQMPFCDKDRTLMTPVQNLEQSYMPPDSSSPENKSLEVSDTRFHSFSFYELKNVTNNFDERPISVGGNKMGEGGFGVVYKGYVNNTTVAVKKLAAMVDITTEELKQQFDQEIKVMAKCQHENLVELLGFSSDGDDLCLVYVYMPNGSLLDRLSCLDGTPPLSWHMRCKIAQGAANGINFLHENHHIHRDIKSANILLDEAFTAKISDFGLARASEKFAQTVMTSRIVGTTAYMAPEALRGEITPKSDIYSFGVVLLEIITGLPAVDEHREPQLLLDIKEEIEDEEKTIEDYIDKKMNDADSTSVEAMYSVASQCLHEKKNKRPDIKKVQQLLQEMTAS
In short: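 OCI-LY10 cells treated with 8-point 1:3 dilutions (top 1 to 10 μM final) for 4 to 24 h at 37° C. Lysate IRAK4 measured by MSD sandwich immunoassay (2H9 capture, Y279 detection, SULFO-TAG anti-rabbit). DC50 from three-parameter logistic fit.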

IRAK4 [3] = target: T1, IRAK4; test: IRAK4 degradation in human whole blood monocyte - flow cytometry; type: cell-based; details: read-out: IRAK4 degradation in whole blood monocyte-Flow cytometry: Average external Abs IC50
Description: (§1) Human whole blood IRAK4 degradation flow assay. Whole blood was collected in heparinized tubes and plated on the same day as draw (day 0). Whole blood was aliquoted into deep well plates. Compound plates were prepared and a 10 point, 5-fold dilution was performed with a final DMSO concentration of 0.1%. Compound was added to whole blood deep well plate, sealed and incubated at 37° C., 5% CO2 for 20 hours (for 4 hour treatment, compounds were prepared and added the following day). Following the treatment incubation period (day 1), BD lyse fix (BD #558049) was added to the whole blood plate, placed on plate shaker for 30 seconds and incubated for 10 mins at room temperature. Whole blood was then spun down and washed two times with PBS/0.5% BSA, aspirated to pellet and placed into −80° C. freezer until further processing for flow. On the flow run day, whole blood plates were thawed and samples were transferred to PCR plates. The pre-perm staining cocktail (CD3 Ax488/CD8 BUV805/CD14 BUV395/CD16/56 BV711/CD19 BV785) was added to samples and incubated for 30 minutes at room temperature. Samples were washed two times and permeabilized with Methanol for 10 minutes at 4° C. Samples were washed two times and the post-perm staining cocktail (CD4 PE/IRAK4 Ax647 BD #560315) was added and incubated for 30 minutes at room temperature. Samples were washed two times with PBS/BSA and run on a BD LSRFortessa. Mononuclear cells are gated by SSCH/FSCH and single cells. Monocytes are then gated through CD14 positive gate and lymphocytes are gated through CD14 negative gate. To determine absolute DC50 and max degradation values, MFI values were normalized to DMSO max and 20 hour 10 μM min control. Twenty hour dose curves were calculated using a 4 parameter logistic regression curve fit, no constraints (Top doses were removed if hook effects were observed and the bottom was constrained to 0).

TNFα [4] = test: Human whole blood LPS TNFα assay; type: cell-based; details: 20 h pretreatment, LPS 5 h, read-out: IRAK4 human whole blood LPS TNFa inhibition: Average external-IC50
Description: Human Whole blood LPS TNFα assay. Whole blood was collected fresh and plated same day into 96 well plates at 180 μL per well. Compound plates were prepared in DMSO as 8-point dose curves in duplicate, starting dose 2 μM, 5-fold. Compounds are added 20 μL into blood for final 200 μL per well. Compound and cells were incubated at 37° C., 5% CO2 for 20 hours. After twenty hours of pretreatment with the compounds, LPS (01 1 1:B4) (Sigma #L2637) was added at 100 ng/ml final concentration and blood incubated an additional five hours at 37° C., 5% CO2. Following assay completion, whole blood plates were spun down at 2000 rpm for 15 minutes at 4° C. 50 μL of plasma was carefully removed and placed into a new 96 well Costar (#3879) plate and stored at −80° C. until further analysis. Meso scale Discovery (MSD) human V-plex assays were used to measure cytokine levels. On day of cytokine analysis, plasma samples were thawed, diluted with V-plex diluent #2, and directly to MSD plates. Assay was further completed per standard manufacturer's protocol. Cytokine data was normalized to LPS stimulated and unstimulated controls. Prism Graphpad was used to generate IC50 using 4 parameter logistic regression curve, free-fit.

OCI-LY10 = test: CTG Cell Viability Assay - OCI-LY10; type: cell-based, human; details: Homo sapiens, OCI-Ly10, 96 h, OCI-LY10, 4 days; read-out: CTG Cell Viability Assay - OCI-LY10: Average external-IC50
In short: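 OCI-LY10 cells exposed to 9-dose, 1:3 dilutions from 10 μM top (0.2% DMSO) for 4 days at 37° C, 5% CO2. Viability by CellTiter-Glo luminescence; IC50 from three-parameter logistic fit.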

IRAK4 [5] = target: T1, IRAK4; test: IRAK4 degradation in human whole blood lymphocyte - flow cytometry; type: cell-based; details: read-out: IRAK4 degradation in whole blood lymphocyte-Flow cytometry: Average external Abs IC50
Description: as §1

[6] = OCI-LY10, 4 hrs, read-out: IRAK4 MSD degradation in OCI-LY10 at 4 hrs: Average external-Abs DC50
[7] = OCI-LY10, 24 hrs, read-out: IRAK4 MSD degradation in OCI-LY10 at 24 hrs: Average external-Abs DC50

| SMILES | IC50 (TNFα [1]) [nM] | DC50 (IRAK4 [2]; [6]) [nM] | IC50 (IRAK4 [3]) [nM] | IC50 (TNFα [4]) [nM] | IC50 (OCI-LY10) [nM] | DC50 (IRAK4 [5]) [nM] | DC50 (IRAK4 [2]; [7]) [nM] | DC50 (IRAK4 [3]) [nM] |
| --- | --- | --- | --- | --- | --- | --- | --- | --- |
| Cn1c(=O)n(C2CCC(=O)NC2=O)c2ccc(CCCCOCCCCNC[C@H]3CC[C@H](n4cc(NC(=O)c5cnn6ccc(N7CCNCC7)nc56)c(C(F)F)n4)CC3)cc21 (some centres unmarked) [I-42] | 100 to 500 | 10 to 100 | < 50 | > 1000 | > 1000 | < 50 | – | – |
| Cn1c(=O)n(C2CCC(=O)NC2=O)c2cccc(CCCN3CCO[C@H](CNC[C@H]4CC[C@H](n5cc(NC(=O)c6coc(-c7ccnc(NCC8CC8)c7)n6)c(C(F)F)n5)CC4)C3)c21 (some centres unmarked) [I-37] | < 50 | 10 to 100 | < 50 | 100 to 500 | < 50 | < 50 | – | – |
| CN(CCOCCOCCCc1cccc2c1n(C)c(=O)n2C1CCC(=O)NC1=O)C(=O)[C@H]1CC[C@H](n2cc(NC(=O)c3coc(-c4ccnc(NCC5CC5)c4)n3)c(C(F)F)n2)CC1 (some centres unmarked) [I-32] | 50 to 100 | < 10 | < 50 | > 1000 | 100 to 500 | 50 to 100 | – | – |
| Cn1c(=O)n(C2CCC(=O)NC2=O)c2ccc(CN3CCN(CCO[C@H]4C[C@H](N(C)C(=O)[C@H]5CC[C@H](n6cc(NC(=O)c7coc(-c8ccnc(NCC9CC9)c8)n7)c(C(F)F)n6)CC5)C4)CC3)cc21 (some centres unmarked) [I-45] | < 50 | < 10 | < 50 | 500 to 1000 | < 50 | 50 to 100 | – | – |
| O=C1CCC(n2c3ccc(CCCOCCOCCNCC4CCC(n5cc(NC(=O)c6coc(-c7ccnc(NCC8CC8)c7)n6)c(C(F)F)n5)CC4)cc3c3cccnc32)C(=O)N1 (centres unmarked) [I-47] | 100 to 500 | 10 to 100 | – | > 1000 | 100 to 500 | 100 to 500 | 10 to 100 | 500 to 1000 |
| O=C1CCC(N2C[C@H](c3cccc(C#CCN4CCO[C@@H](CNC[C@H]5CC[C@H](n6cc(NC(=O)c7coc(-c8ccnc(NCC9CC9)c8)n7)c(C(F)F)n6)CC5)C4)c3)OC2=O)C(=O)N1 (some centres unmarked) [I-39] | 50 to 100 | 10 to 100 | – | 100 to 500 | 50 to 100 | 100 to 500 | – | 50 to 100 |
| Cn1c(=O)n(C2CCC(=O)NC2=O)c2cccc(CCCOCCOCCNC[C@H]3CC[C@H](n4cc(NC(=O)c5coc(-c6ccnc(NCC7CC7)c6)n5)c(C(F)F)n4)CC3)c21 (some centres unmarked) [I-2] | 100 to 500 | 100 to 1000 | < 50 | > 1000 | 100 to 500 | < 50 | – | – |
| Cn1c(=O)n(C2CCC(=O)NC2=O)c2cccc(CCCN3CCO[C@@H](CNC[C@H]4CC[C@H](n5cc(NC(=O)c6coc(-c7ccnc(NCC8CC8)c7)n6)c(C(F)F)n5)CC4)C3)c21 (some centres unmarked) [I-38] | < 50 | < 10 | < 50 | 100 to 500 | < 50 | 50 to 100 | – | – |
| C=C(C)c1nn([C@H]2CC[C@H](C(=O)N(C)CCCOCCCc3cccc4c3n(C)c(=O)n4C3CCC(=O)NC3=O)CC2)cc1NC(=O)c1coc(-c2ccnc(NCC3CC3)c2)n1 (some centres unmarked) [I-31] | 100 to 500 | 100 to 1000 | – | > 1000 | 100 to 500 | 100 to 500 | – | 50 to 100 |
| Cn1c(=O)n(C2CCC(=O)NC2=O)c2cccc(CCCOC3CCN(C[C@H]4CC[C@H](n5cc(NC(=O)c6coc(-c7ccnc(NCC8CC8)c7)n6)c(C(F)F)n5)CC4)CC3)c21 (some centres unmarked) [I-48] | 100 to 500 | < 10 | < 50 | 100 to 500 | < 50 | < 50 | – | – |
| CN(C[C@@H]1CN(CCCc2ccc3c(c2)n(C)c(=O)n3C2CCC(=O)NC2=O)CCO1)C[C@H]1CC[C@H](n2cc(NC(=O)c3coc(-c4ccnc(NCC5CC5)c4)n3)c(C(F)F)n2)CC1 (some centres unmarked) [I-36] | 100 to 500 | 10 to 100 | < 50 | 100 to 500 | 500 to 1000 | < 50 | – | – |
| Cn1c(=O)n(C2CCC(=O)NC2=O)c2cccc(CCCOCCN3CCN(C[C@H]4CC[C@H](n5cc(NC(=O)c6coc(-c7ccnc(NCC8CC8)c7)n6)c(C(F)F)n5)CC4)CC3)c21 (some centres unmarked) [I-58] | 100 to 500 | < 10 | < 50 | > 1000 | 50 to 100 | 50 to 100 | – | – |
| CN(CCCOCCCc1ccc2c(c1)c1cccnc1n2C1CCC(=O)NC1=O)C[C@H]1CC[C@H](n2cc(NC(=O)c3coc(-c4ccnc(NCC5CC5)c4)n3)c(C(F)F)n2)CC1 (some centres unmarked) [I-46] | 100 to 500 | 10 to 100 | – | > 1000 | 500 to 1000 | 100 to 500 | 10 to 100 | 500 to 1000 |
| CN(C[C@H]1CN(CC#Cc2ccc3c(c2)n(C)c(=O)n3C2CCC(=O)NC2=O)CCO1)C[C@H]1CC[C@H](n2cc(NC(=O)c3coc(-c4ccnc(NCC5CC5)c4)n3)c(C(F)F)n2)CC1 (some centres unmarked) [I-61] | 100 to 500 | 10 to 100 | – | > 1000 | 100 to 500 | 100 to 500 | – | 50 to 100 |
| Cn1c(=O)n(C2CCC(=O)NC2=O)c2cccc(CCCOCC3CN(C[C@H]4CC[C@H](n5cc(NC(=O)c6coc(-c7ccnc(NCC8CC8)c7)n6)c(C(F)F)n5)CC4)C3)c21 (some centres unmarked) [I-65] | < 50 | < 10 | < 50 | > 1000 | < 50 | 50 to 100 | – | – |
| Cn1c(=O)n(C2CCC(=O)NC2=O)c2ccc(CCCN3CCO[C@@H](CNC[C@H]4CC[C@H](n5cc(NC(=O)c6coc(-c7ccnc(NCC8CC8)c7)n6)c(C(F)F)n5)CC4)C3)cc21 (some centres unmarked) [I-16] | 100 to 500 | < 10 | < 50 | > 1000 | 100 to 500 | 50 to 100 | – | – |
